Marks after values point to notes of the source that are not given here.
Tests used:
salivation = conditions: preclinical animal studies; cited from earlier work
[1] = test system: M3 muscarinic receptors versus M2 muscarinic receptors; conditions: cited from earlier work
[2] = target: T1, human M1 muscarinic receptor (Homo sapiens, UniProt P11229); test: V0162 receptor binding in vitro, CHO cells transfected with human M1, tritiated pirenzepine; conditions: M1(h)
T1 sequence (P11229 1-460): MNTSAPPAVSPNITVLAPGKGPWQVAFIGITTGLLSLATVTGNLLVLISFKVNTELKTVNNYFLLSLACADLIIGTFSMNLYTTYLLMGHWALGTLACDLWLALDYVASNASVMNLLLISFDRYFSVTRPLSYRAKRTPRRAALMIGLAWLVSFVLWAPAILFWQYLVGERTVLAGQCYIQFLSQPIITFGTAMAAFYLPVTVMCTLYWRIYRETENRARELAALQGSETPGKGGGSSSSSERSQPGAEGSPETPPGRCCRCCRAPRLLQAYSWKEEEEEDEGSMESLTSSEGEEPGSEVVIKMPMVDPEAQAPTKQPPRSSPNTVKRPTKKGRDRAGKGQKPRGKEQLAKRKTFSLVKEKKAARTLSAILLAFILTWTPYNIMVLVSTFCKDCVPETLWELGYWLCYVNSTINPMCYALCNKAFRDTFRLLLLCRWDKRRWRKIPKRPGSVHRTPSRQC
Source text: (§1) The purpose of this study is to determine an affinity constant for the compound with respect to the three classes of human muscarinic receptors in vitro. The model chosen is the CHO cell stably transfected with cDNAs coding for each of the three human muscarinic receptors. […] Binding with respect to the receptors is defined as follows: the difference between overall binding and non-specific binding determined in the presence of excess cold ligand. The results are expressed as a percentage of the optimal binding obtained with the model ligand (100%). […] The inhibition constants (Ki) were calculated by means of the Cheng Prusoff equation (Ki=IC50/(1+L/KD)); where L is the radioligand concentration and KD the affinity of the radioligand for the receptor.

[3] = Anticholinergic activity in vivo by intravenous administration
[4] = test system: pilocarpine-induced sialorrhea in the rat; test: Pilocarpine-induced sialorrhea, inhibition of salivary secretion after p.o. administration; type: in vivo
Description: For the purpose of evaluating anticholinergic activity in the validated model of pilocarpine-induced sialorrhea in the rat, groups of animals were fasted and the next day the products were administered orally 90 minutes before intra-peritoneal injection of pilocarpine (0.5 mg.kg^-1). The compounds tested were administered in doses of 2.5, 5 and 10 mg.kg^-1. […] The animals were anaesthetized and then the salivary secretion was collected for 60 minutes, every ten minutes. The samples were then dried and weighed.

[5] = target: T2, human M3 muscarinic receptor (Homo sapiens, UniProt P20309); test: V0162 receptor binding in vitro, CHO cells transfected with human M3, 4-DAMP; conditions: M3 (h)
T2 construct: expressed in transfected cells; host or cells: CHO cells, stably transfected
Source text: as §1

[6] = test system: increase in intravesical pressure induced by bethanechol; test: Intravesical pressure (cystomanometry) after bethanechol; type: in vivo; conditions: compared to oxybutyrine
Description: The objective of this study was to measure intravesical pressure and salivation, in the animal, for the purpose of testing the uroselectivity of the anti-muscarinics, when they are administered orally and vaginally. In order to evaluate intravesical pressure, the bladders of the animals were catheterized in order to make possible recording (cystomanometry: continuous recording of the vesical pressure). The products to be tested were administered either per os at a dose of 5 mg.Kg^-1 or by local application of a suspension of […] at 0.4% in a vehicle with a base of cyclodextrin and arginine. The jugular vein was also cannulated in order to administer a muscarinic agonist: bethanechol (200 μg/kg, iv). At each administration of bethanechol, the variation of vesical pressure (ΔPV, mmHg) and the quantity of saliva (mg) were evaluated and quantified. The positive control was made up of a group of animals treated with oxybutyrine (Ditropan®; 10, 100 and 1000 μg/kg, iv).

[7] = test system: explants taken from the guinea pig (contractions induced by acetylcholine); test: Anticholinergic effect ex vivo, contractions induced by acetylcholine in explants; conditions: for Response to Acetylcholine Max. Response (%): test curve, mean ± sem, n = 6
Description: The purpose of these experiments was to confirm the anticholinergic activity of […] on a living organ. In order to do so, explants taken from the guinea pig were kept alive. The morphology of the preparations was homogeneous from batch to batch. Each explant was placed in a survival chamber and immersed in a physiological solution of composition (mM): NaCl (118); KCl (4.7); […] CaCl2 (2.5); […] NaHCO3 (25); glucose (11), at a temperature of 37° C. and with a pH of 7.4. Before the test, the following agents were dispersed in the survival buffer in order to block non-specific responses to acetylcholine: […] (10^-6 M) to block β2-adrenergic responses; cimetidine (10^-5 M) to block type 2 histaminergic responses; methysergide (10^-6 M) to block serotoninergic responses and indomethacine (3×10^-6 M) to prevent the appearance of muscle tonus due to a release of prostaglandins by the preparation itself. At the time of acquisition, the tissues were connected to […] in order to continuously record the variations in tension. After 60 minutes of calibration of the preparations, the tissues were exposed to variable concentrations of […]. The contractions induced by acetylcholine as dose responses were carried out in order to determine the response of the preparation to the stimulation in the absence of the putative inhibitor.

[8] = Transmucosal passage: repeated nasal administration of V0162 suspension, circulating level and tolerance; type: in vivo, rabbit; conditions: for Level of V0162: rabbit plasma, nasal 0.4% suspension twice per day
Description: 48 rabbits were treated nasally daily for 28 days with a suspension titrated at 0.4% mass/volume. […] Each group was made up of males and females equally. Nasal administration of the suspension was carried out twice per day for 28 days. Plasma samples were taken on D1, D2, D7, D28, D35. The samples were analyzed by an LC/MS/MS method validated by assay of V0162.

[9] = p.o. 5 mg·kg^−1, comparison of racemic mixture and enantiomers (Table 4)
[10] = p.o. 2.5 mg·kg^−1, 90 min before pilocarpine
[11] = p.o. 10 mg·kg^−1, 90 min before pilocarpine

T2 sequence (P20309 whole entry): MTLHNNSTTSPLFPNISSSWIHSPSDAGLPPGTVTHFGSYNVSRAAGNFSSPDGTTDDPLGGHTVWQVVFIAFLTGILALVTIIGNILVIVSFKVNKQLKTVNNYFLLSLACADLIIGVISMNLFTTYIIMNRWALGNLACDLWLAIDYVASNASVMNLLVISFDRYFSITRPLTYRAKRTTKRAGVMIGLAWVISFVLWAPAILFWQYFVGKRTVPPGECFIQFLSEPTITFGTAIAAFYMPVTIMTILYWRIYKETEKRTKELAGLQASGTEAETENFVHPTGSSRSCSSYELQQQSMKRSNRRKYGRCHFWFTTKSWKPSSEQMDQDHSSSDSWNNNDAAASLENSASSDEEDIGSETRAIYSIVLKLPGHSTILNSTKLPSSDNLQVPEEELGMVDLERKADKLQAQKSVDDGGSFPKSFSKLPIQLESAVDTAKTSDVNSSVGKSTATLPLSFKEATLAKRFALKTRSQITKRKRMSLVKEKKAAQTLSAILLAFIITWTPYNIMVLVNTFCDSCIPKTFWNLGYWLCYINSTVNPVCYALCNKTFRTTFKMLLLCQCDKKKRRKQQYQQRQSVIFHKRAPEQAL

## Cc1ccc(O)c([C@H](CCN(C(C)C)C(C)C)c2ccccc2)c1 [tolterodine]
salivation
  Effect on salivation: reduces salivation less
[1]
  Selectivity between M3 and M2 receptor: more specific for the M2 receptor than for the M3 receptor

## c1ccc2c(c1)Sc1ccccc1N2C[C@@H]1CN2CCC1CC2 [10-[(3S)-1-azabicyclo[2.2.2]oct-3-ylmethyl]-10H-phenothiazine, reference compound]
[2]
  nH (Hill coefficient): 1.1
[3]
  Anticholinergic activity in vivo: does not demonstrate clear activity
[4]; [9]
  Inhibition (%): −4%
[5]
  nH (Hill coefficient): 1.0

## CN1[C@@H]2CC[C@H]1C[C@@H](OC(=O)C(CO)c1ccccc1)C2 (some centres unmarked) [Atropine, reference compound]
[4]; 1 mg·kg^−1, positive control
  Inhibition (%): 98* %

## c1ccc2c(c1)Sc1ccccc1N2CC1CN2CCC1CC2 (racemic) [10-[(3R,3S)-1-azabicyclo[2.2.2]oct-3-ylmethyl]-10H-phenothiazine, reference compound]
[2]
  nH (Hill coefficient): 0.8
[4]; [9]
  Inhibition (%): 73* %
[5]
  nH (Hill coefficient): 1.2

## CCN(CC)CC#CCOC(=O)C(O)(c1ccccc1)C1CCCCC1 (centres unmarked) [oxybutynine]
salivation
  Effect on salivation: reduce salivation

## NC(=O)C(c1ccccc1)(c1ccccc1)[C@@H]1CCN(CCc2ccc3c(c2)CCO3)C1 [darifenacine]
salivation
  Effect on salivation: reduce salivation
[1]
  Affinity for M3 muscarinic receptors higher than for M2 muscarinic receptors: 7 times
  Selectivity between M3 and M2 receptor: more selective with respect to the M3 receptor than with respect to the M2

## c1ccc2c(c1)Sc1ccccc1N2C[C@H]1CN2CCC1CC2 [V0162, 10-[(3R)-1-azabicyclo[2.2.2]oct-3-ylmethyl]-10H-phenothiazine]
[6]; local application of 0.4% suspension, bethanechol 200 μg/kg iv
  Increase in intravesical pressure induced by bethanecol: significantly reduces the increase in intravesical pressure
[6]; per os 5 mg.Kg^−1, bethanechol 200 μg/kg iv
  Increase in intravesical pressure induced by bethanecol: significantly reduces the increase in intravesical pressure
[7]; V0162 30 nM
  Response to Acetylcholine Max. Response (%): 98 ± 1%
[7]; V0162 100 nM
  Response to Acetylcholine Max. Response (%): 98 ± 1%
[7]; V0162 300 nM
  Response to Acetylcholine Max. Response (%): 98 ± 1%
[7]; ex vivo model
  Mode of action towards acetylcholine: behaves like an antagonistic competitor of acetylcholine
[8]; Day 1/4 hours after administration
  Level of V0162: 0.88 ng/mL
[8]; Day 1/before administration
  Level of V0162: BLQ
[8]; Day 2/before administration
  Level of V0162: 0.22 ng/mL
[8]; Day 7/before administration
  Level of V0162: 0.41 ng/mL
[8]; Day 28/4 hours after administration
  Level of V0162: 1.35 ng/mL
[8]; Day 28/24 hours after administration
  Level of V0162: 0.23 ng/mL
[8]; Day 35/before administration
  Level of V0162: BLQ
[8]; rabbit, in vivo
  Toxic effects (histological plane, respiratory rhythm, heart rate, behaviour): do not lead to toxic effects
[8]; rabbit, nasal 0.4% suspension twice per day for 28 days
  Effects on the nasal mucosa: does not induce deleterious effects on the nasal mucosa
[8]; rabbit, nasal administration of a suspension
  Circulating level: ~4 nM
[3]
  Anticholinergic activity in vivo: anticholinergic by intravenous administration
[4]; [10]
  Inhibition (%): 29%
  Secretion: 735.6 mg
[4]; p.o. 5 mg·kg^−1, 90 min before pilocarpine
  Secretion: 338.9 mg
[4]; p.o. 5 mg·kg^−1, 90 min before pilocarpine (Table 3)
  Inhibition (%): 67* %
[4]; [9]
  Inhibition (%): 77* %
[4]; [11]
  Inhibition (%): 95* %
  Secretion: 45.1 mg
